Source: US10894777B2, “TG2 inhibitor piperazine compounds and uses thereof” (UNIVERSITY OF OTTAWA, priority 2016, dated 2021)

How the values were obtained:
SCC-13 cells = assay: Matrigel invasion assay, SCC-13 cells; type: cell-based, human
Method: Invasion assay. Matrigel was diluted in 0.01 M Tris-HCl/0.7% NaCl, filter sterilized and 0.1 ml was used to coat individual BD BioCoat inserts (Millicell-PCF, 0.4 μm, 12 mm, PIHP01250). Cells (25,000) were plated in 100 μl in growth medium, supplemented with 1% FCS, in the upper chamber. The lower chamber contained growth medium supplemented with 10% FCS. After migration, the membranes were harvested and excess cells were removed from the upper membrane surface. The membrane was fixed in 4% paraformaldehyde, stained with 1 μg/m DAPI, and the underside of the membrane was photographed with an inverted fluorescent microscope and the number of cells counted.
Invasion assay. Matrigel (BD Biolabs) was diluted into 2 mL of 0.01 M Tris-HC/0.7% NaCl to a final concentration of 300 μg/mL, filter sterilized and 0.1 mL was added per BD BioCoat cell insert. After 2 hours, near-confluent SCC13-TG2-shRNA2 and SCC13-Control-shRNA cells were harvested and 25,000 cells were plated in 100 μL of growth media containing 1% FCS atop the Matrigel layer. Growth medium containing 10% FCS was added to the bottom chamber followed by an overnight incubation at 37° C. The following day a cotton swab was used to remove cells from the upper side of the membrane, the membrane was rinsed with phosphate-buffered saline, fixed with 4% paraformaldehyde for 10 min, washed again, and stained with 1 μg/mL DAPI for 10 min. The underside of the membrane was viewed with an inverted fluorescent microscope and nuclei were counted.
Invasion assay. Matrigel (BD Biolabs) was diluted into 2 ml of 0.01 M Tris-HC/0.7% NaCl to a final concentration of 300 μg/ml, filter sterilized, and 0.1 ml was added per BD BioCoat cell insert (8 microns pore size, surface area 0.3 cm2). After 2 h, near-confluent SCC-13 cells were harvested and 25,000 cells were plated in 100 μl of growth media containing 1% FCS atop the Matrigel layer. Growth medium containing 10% FCS was added to the bottom chamber followed by an overnight incubation at 37° C. The following day a cotton swab was used to remove cells from the upper side of the membrane, the membrane was rinsed with PBS, fixed with 4% paraformaldehyde, washed again, and stained with 1 μg/ml DAPI for 10 min. The underside of the membrane was viewed with an inverted fluorescent microscope, and nuclei were counted (Adhikary, G. et al., PLoS One 8:e84324, 2013).

HaCaT cells = assay: Spheroid formation assay, HaCaT cells; type: cell-based, human; details: 20 μM, 48 h
Method: Spheroid formation assay. Spheroid formation assays were as reported previously (Adhikary, G. et al., PLoS One 8:e84324, 2013), except that the spheroids were grown in 6-well ultralow attachment Costar cluster dishes (Corning).

TG2 [1] = biological target: T1, TG2 (Homo sapiens, UniProt P21980); assay: In situ transglutaminase assay, ionomycin-activated, GBM cell lines; type: cell-based; set-up: endogenous in cells; details: 10 μM; for ionomycin-activated in situ transamidating activity of TG2: U87 cells, 1 h pretreatment, 1 μM ionomycin 3 h
T1 sequence (P21980 1-687): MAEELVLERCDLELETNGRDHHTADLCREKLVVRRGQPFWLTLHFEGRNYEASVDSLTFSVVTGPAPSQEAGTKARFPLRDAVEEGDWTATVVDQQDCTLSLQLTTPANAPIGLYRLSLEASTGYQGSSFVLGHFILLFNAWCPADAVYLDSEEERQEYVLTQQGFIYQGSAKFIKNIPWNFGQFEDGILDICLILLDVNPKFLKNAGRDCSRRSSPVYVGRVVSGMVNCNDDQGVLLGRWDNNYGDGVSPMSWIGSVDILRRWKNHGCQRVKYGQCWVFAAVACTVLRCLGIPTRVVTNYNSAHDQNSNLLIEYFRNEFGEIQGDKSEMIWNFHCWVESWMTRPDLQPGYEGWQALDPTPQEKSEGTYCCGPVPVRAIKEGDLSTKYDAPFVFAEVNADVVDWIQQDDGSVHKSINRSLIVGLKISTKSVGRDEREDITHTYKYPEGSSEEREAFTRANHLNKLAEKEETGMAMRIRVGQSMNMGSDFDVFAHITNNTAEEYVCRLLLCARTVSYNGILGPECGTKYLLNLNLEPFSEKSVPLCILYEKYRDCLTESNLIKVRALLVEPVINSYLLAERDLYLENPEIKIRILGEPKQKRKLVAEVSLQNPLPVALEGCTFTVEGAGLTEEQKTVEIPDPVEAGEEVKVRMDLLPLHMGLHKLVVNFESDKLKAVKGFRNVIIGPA
Method: In situ transglutaminase assay. In situ transamidating activity measurement was conducted as described previously (Gundemir, S. and Johnson, G. V., PLoS ONE 4(7):e6123, 2009) with slight modifications. […] In a high protein binding 96-well plate (Falcon), 10 μg of protein was loaded in a total of 50 μL homogenization buffer and the plate was incubated at 4° C. overnight. The next day, 200 μL of blocking buffer (5% BSA, 0.01% Tween 20 in borate saline [100 mM boric acid, 20 mM Na-borate and 0.76 mM NaCl]) was added to each sample and the plate was incubated at 37° C. for 1 h. Each well was then rinsed 3 times with rinsing buffer (1% BSA, 0.01% Tween 20 in borate saline) and incubated with 1 μg/μL Horseradish peroxidase conjugated neutravidin (Pierce) in a total of 100 μL rinsing buffer at room temperature for 1 h. […] After 20 minutes, the reaction was stopped by addition of 50 μL of 1 M sulfuric acid and read at 493 nm wavelength.

TG2 [2] = biological target: T1, TG2; assay: In situ TG2 transamidase activity (FC incorporation), HaCaT cells; type: cell-based; set-up: endogenous in cells
Method: HaCaT cells were electroporated with mCer-TG2 or mCer-TG2-YAP and then treated with 0 or 5 μM of the indicated inhibitor and fluorescent lifetime was monitored. […] HaCaT cells were preloaded with fluorescein cadaverine, treated with the indicated inhibitor and then challenged with calcium ionophore, washed and assayed for FC incorporation. […] HaCaT were incubated for 48 h with the indicated inhibitor and extracts were prepared and incubated with GTP-agarose beads to measure TG2 binding to GTP agarose. The beads were then washed, boiled in Laemmli buffer and electrophoresed for immunoblot detection of TG2. Cell equivalent quantities of total and bound samples were electrophoresed to facilitate comparison of GTP bound versus total. […] Experiments were performed as described in FIGS. 31 (F) and (G).
In situ TG2 transamidase activity assay. Cells (40,000) were plated in 24-well attachment dishes in spheroid media and grown until 50% confluent. FC was added in 2 ml of serum-free medium at a final concentration of 20 μM and incubated for 4 h. […] After 30 min, the wells were supplemented with 10 NM A23187, a calcium ionophore.

| SMILES | matrigel invasion (SCC-13 cells; 20 μM pretreatment 1 hour, 24 hours) | invasion (SCC-13 cells; 20 μM pretreatment 2 h, 30 h) | matrigel invasion (SCC-13 cells; 20 μM, 24 h) | ECS cell spheroid formation (HaCaT cells) | in situ transamidation activity of TG2 induced by ionomycin (TG2 [1]; U87, 1321N, U251, T98G cell lines) | ionomycin-activated in situ transamidating activity of TG2 (TG2 [1]) | TG2 transamidase activity (FC incorporation) (TG2 [2]) |
| --- | --- | --- | --- | --- | --- | --- | --- |
| C=CC(=O)NCCCC[C@H](NC(=O)OCc1ccccc1)C(=O)NCCOCCOCCNS(=O)(=O)c1cccc2c(N(C)C)cccc12 [NC9] | reduced matrigel invasion | reduced | inhibited | suppressed | completely inhibited | inhibit ionomycin-activated transamidating activity of TG2 | suppressed TG2 transamidase activity |
| C=CC(=O)NCCCC[C@H](NC(=O)OCc1ccccc1)C(=O)N1CCN(S(=O)(=O)c2cccc3c(N(C)C)cccc23)CC1 [VA4, (S)-benzyl(6-acrylamido-1-(4-((5-(dimethylamino)naphthalen-1-yl)sulfonyl)piperazin-1-yl)-1-oxohexan-2-yl)carbamate] | – | – | inhibited | suppressed | – | inhibit ionomycin-activated transamidating activity of TG2 | suppressed TG2 transamidase activity |
| C=CC(=O)NCCCC[C@H](NC(=O)OCc1ccccc1)C(=O)N1CCN(C(=O)c2cc3ccc(O)cc3oc2=O)CC1 [VA5, (S)-Benzyl(6-acrylamido-1-(4-(7-hydroxy-2-oxo-2H-chromene-3-carbonyl)piperazin-1-yl)-1-oxohexan-2-yl)carbamate] | – | – | inhibited | suppressed | – | inhibit ionomycin-activated transamidating activity of TG2 | suppressed TG2 transamidase activity |
